Reference: patent US20090088380A1, “GHRH ANALOGS AND THERAPEUTIC USES THEREOF” (priority 2007, published 2009)
Non-standard residues stand in square brackets, D forms with d. Residues, ends and D or L forms follow the SMILES beside them.

Assays:
[1] = system: Rat Growth Hormone; experiment: In vivo GH secretion in adult female Sprague-Dawley rats, single SC or IV injection, RIA
Experimental: In order to assess such use of the GHRH analogs, the following experiments were undertaken. More specially, the goal was to assess the pharmacodynamic and pharmacokinetic profiles and acute toxicity of GHRH analog #5 when administered once by subcutaneous or intravenous injection to female Sprague-Dawley rats followed by a 14-day observation period and the pharmacodynamic profile in a male Beagle dog when the GHRH analog was administered at escalating doses to the same dog by subcutaneous injection with at least 2-day washout period. The above GHRH analog is a variation of a synthetic acetate salt of an amidated synthetic 29-amino acid peptide that corresponds to the amino-terminal segment of the naturally-occurring human growth hormone—releasing hormone (GHRH) with four amino acid substitutions in positions 2, 10, 15, and 22.
Human GHRH analog #5 in 0.9% sodium chloride for injection USP was administered once either by intravenous (IV) or subcutaneous (SC) injection to female rats followed by a 14-day observation period, as shown in Table 2. Prior to administration, all dosing formulations were filtered using a 0.22 μm filter to ensure sterility. The actual amount of GHRH analog #5 administered was calculated and adjusted based on the animal's most recent body weight. Dosing started at approximately the same time each day, commencing at 9:00 am ±30 minutes.
For pharmacodynamic investigations, blood samples (approximately 1.3 ml) were collected from 2 animals per group per time point (maximum 3 time points/animal) via a jugular venipuncture at the following time points: […] All blood samples were collected into potassium EDTA tubes and centrifuged under refrigeration (2 to 8° C., 1500 g for 10 minutes).
Rat Growth Hormone Determination • Plasma GH was determined by Linco Diagnostic Services using their own kit. Linco's Rat Growth Hormone radioimmunoassay kit (RIA) (RGH-45HK) is intended for the quantitative determination of Rat Growth Hormone in serum, plasma, and tissue culture media. It is a completely homologous assay since the antibody was raised against recombinant Rat Growth Hormone and both the tracer and the standard are prepared with the same recombinant Rat Growth Hormone. The kit includes standards, antibody, tracer, quality controls, precipitating reagents and buffer necessary to complete a RIA. The assay was conducted under the following conditions: overnight; equilibrium incubation at room temperature; sample volume: 100 μl serum, plasma, or cell culture media. The label used was 125I-Rat Growth Hormone (20,000 CPM/tube).

[2] = system: malnourished subjects with CKD; experiment: Phase II CKD: abnormal findings on physical examination; format: in vivo, human; conditions: safety analysis set
From the text: There were no body systems in which there was a trend towards change in physical examination. Any physical examination findings after the screening visit were reported as AEs.

[3] = 0.3 mg/kg BW SC, in ng·min/mL (unit assumed)
[4] = 1.0 mg/kg BW SC, in ng·min/mL (unit assumed)
[5] = 3.0 mg/kg BW IV, in ng·min/mL (unit assumed)
[6] = 3.0 mg/kg BW SC, in ng·min/mL (unit assumed)

In the case of `CC[C@H](C)[C@H](NC(=O)[C@H](C)NC(=O)[C@H](CC(=O)O)NC(=O)[C@@H](C)NC(=O)[C@@H](N)Cc1ccc(O)cc1)C(=O)N[C@@H](Cc1ccccc1)C(=O)N[C@H](C(=O)N[C@@H](CC(N)=O)C(=O)N[C@@H](CO)C(=O)N[C@H](Cc1ccc(O)cc1)C(=O)N[C@@H](CCCNC(=N)N)C(=O)N[C@@H](CCCCN)C(=O)N[C@H](C(=O)N[C@@H](CC(C)C)C(=O)N[C@H](C)C(=O)N[C@@H](CCC(N)=O)C(=O)N[C@@H](CC(C)C)C(=O)N[C@@H](CO)C(=O)N[C@@H](C)C(=O)N[C@@H](CCCNC(=N)N)C(=O)N[C@@H](CCCCN)C(=O)N[C@@H](CCCCN)C(=O)N[C@@H](CC(C)C)C(=O)N[C@@H](CCC(N)=O)C(=O)N[C@@H](CC(=O)O)C(=O)N[C@H](C(=O)N[C@@H](CCSC)C(=O)N[C@@H](CO)C(=O)N[C@@H](CCCNC(=N)N)C(N)=O)[C@@H](C)CC)C(C)C)[C@@H](C)O` [GHRH analog #5, [D-Ala^2, D-Tyr^10, D-Ala^15, Lys^22] hGHRH(1-29)-NH2] (H-Y[dA]DAIFTNS[dY]RKVL[dA]QLSARKKLQDIMSR-NH2), the “GH AUC 120 min” value [1, 3] is reported as 8636, the “GH AUC 300 min” value [1, 3] is reported as 10958 and the “Plasma Rat Growth Hormone” value ([1]; 0.3 mg/kg BW SC, −120 min) is reported as 20.7 ng/mL. For the same molecule, the “Plasma Rat Growth Hormone” value ([1]; 1.00 mg/kg BW SC, 15 min) was 270.0 ng/mL, the “Plasma Rat Growth Hormone” value ([1]; 1.00 mg/kg BW SC, 30 min) was 155.85 ng/mL and the “Plasma Rat Growth Hormone” value ([1]; 1.00 mg/kg BW SC, 60 min) was 24.35 ng/mL. For the same molecule, the “Plasma Rat Growth Hormone” value ([1]; 1.00 mg/kg BW SC, 120 min) was 15.85 ng/mL, the “Plasma Rat Growth Hormone” value ([1]; 1.00 mg/kg BW SC, 300 min) was 28.85 ng/mL and the “GH AUC 120 min” value [1, 4] was 10425. For the same molecule, the “GH AUC 300 min” value [1, 4] was 14448, the “Plasma Rat Growth Hormone” value ([1]; 1.00 mg/kg BW SC, −120 min) was 88.95 ng/mL and the “Plasma Rat Growth Hormone” value ([1]; 3.0 mg/kg BW IV, 4 min) was 38.7 ng/mL. For the same molecule, the “Plasma Rat Growth Hormone” value ([1]; 3.0 mg/kg BW IV, 10 min) was 36.95 ng/mL, the “Plasma Rat Growth Hormone” value ([1]; 3.0 mg/kg BW IV, 15 min) was 83.65 ng/mL and the “Plasma Rat Growth Hormone” value ([1]; 3.0 mg/kg BW IV, 45 min) was 41.6 ng/mL. The “Plasma Rat Growth Hormone” value ([1]; 3.0 mg/kg BW IV, 300 min) was 56.7 ng/mL, the “GH AUC 45 min” value [1, 5] was 2384 and the “GH AUC 300 min” value [1, 5] was 14299. For the same molecule, the “Plasma Rat Growth Hormone” value ([1]; 3.0 mg/kg BW IV, −120 min) was 48.6 ng/mL, the “Plasma Rat Growth Hormone” value ([1]; 3.00 mg/kg BW SC, 15 min) was 453.0 ng/mL and the “Plasma Rat Growth Hormone” value ([1]; 3.00 mg/kg BW SC, 30 min) was 181.55 ng/mL. For the same molecule, the “Plasma Rat Growth Hormone” value ([1]; 3.00 mg/kg BW SC, 60 min) was 59.4 ng/mL, the “Plasma Rat Growth Hormone” value ([1]; 3.00 mg/kg BW SC, 120 min) was 4.45 ng/mL and the “Plasma Rat Growth Hormone” value ([1]; 3.00 mg/kg BW SC, 300 min) was 47.9 ng/mL. For the same molecule, the “GH AUC 120 min” value [1, 6] was 15562, the “GH AUC 300 min” value [1, 6] was 20273 and the “Plasma Rat Growth Hormone” value ([1]; 3.00 mg/kg BW SC, −120 min) was 20.05 ng/mL. For the same molecule, the “GH secretion compared with natural hGHRH(1-44)NH2 (pulse amplitude and AUC)” value ([1]; rat) was “twice larger”, the “In vivo potency compared with the natural 44 amino acid GHRH” value ([1]; rat and dog) was “at least two times more potent in vivo” and the Somatotroph desensitization ([1]; rat, highest single IV dose) was “induced transient somatotroph desensitization”. The “GH secretion into peripheral blood, dose dependence” value ([1]; rat, intravenous and subcutaneous) was “dose-dependent response”, the “Time of peak GH secretion” value ([1]; rat, intravenous injection) was 4 to 10 min and the “Time of peak GH secretion” value ([1]; rat, single subcutaneous injection) was 10 to 15 min. For the same molecule, the “Subjects with abnormal findings on physical examination: Cardiovascular (%)” value ([2]; Baseline) was “(46.2%)”, the “Subjects with abnormal findings on physical examination: Central nervous system (%)” value ([2]; Baseline) was “(0.0%)” and the “Subjects with abnormal findings on physical examination: Ear (%)” value ([2]; Baseline) was “(15.4%)”. For the same molecule, the “Subjects with abnormal findings on physical examination: Gastrointestinal (%)” value ([2]; Baseline) was “(30.8%)”, the “Subjects with abnormal findings on physical examination: Genitourinary (%)” value ([2]; Baseline) was “(23.1%)” and the “Subjects with abnormal findings on physical examination: Musculoskeletal (%)” value ([2]; Baseline) was “(53.8%)”. The “Subjects with abnormal findings on physical examination: Nose and throat (%)” value ([2]; Baseline) was “(38.5%)”, the “Subjects with abnormal findings on physical examination: Other (%)” value ([2]; Baseline) was “(23.1%)” and the “Subjects with abnormal findings on physical examination: Respiratory (%)” value ([2]; Baseline) was “(0.0%)”. The “Subjects with abnormal findings on physical examination: Skin (%)” value ([2]; Baseline) was “(69.2%)”, the “Subjects with abnormal findings on physical examination: Cardiovascular (%)” value ([2]; Day 28) was “(25.0%)” and the “Subjects with abnormal findings on physical examination: Central nervous system (%)” value ([2]; Day 28) was “(0.0%)”. For the same molecule, the “Subjects with abnormal findings on physical examination: Ear (%)” value ([2]; Day 28) was “(16.7%)”, the “Subjects with abnormal findings on physical examination: Gastrointestinal (%)” value ([2]; Day 28) was “(41.7%)” and the “Subjects with abnormal findings on physical examination: Genitourinary (%)” value ([2]; Day 28) was “(16.7%)”. For the same molecule, the “Subjects with abnormal findings on physical examination: Musculoskeletal (%)” value ([2]; Day 28) was “(50.0%)”, the “Subjects with abnormal findings on physical examination: Nose and throat (%)” value ([2]; Day 28) was “(41.7%)” and the “Subjects with abnormal findings on physical examination: Other (%)” value ([2]; Day 28) was “(41.7%)”. For the same molecule, the “Subjects with abnormal findings on physical examination: Respiratory (%)” value ([2]; Day 28) was “(8.3%)” and the “Subjects with abnormal findings on physical examination: Skin (%)” value ([2]; Day 28) was “(75.0%)”.
